The assay deals with USP7 (Homo sapiens (Human), UniProt Q93009). The experiment in a line: USP7 fluorescence polarisation (FP) biochemical assay, ubiquitin-Lys-TAMRA substrate. Conditions: average of at least duplicate experiments. Here is the method: Measurement of USP7 Inhibitory Activity
USP7 activity was monitored in a fluorescence polarisation (FP) homogeneous assay using the isopeptide ubiquitin-Lys-TAMRA substrate (U-558, Boston Biochem). Full-length USP7 was purchased from Boston Biochem (His6-USP7FL, E-519). Unless otherwise stated, all other reagents were purchased from Sigma-Aldrich. Enzymatic reactions were conducted in black flat-bottom polystyrene 384-well plates (Nunc) and 15 μL total volume. USP7 (2.5 nM, 5 μL) was incubated in assay buffer (50 mM HEPES (pH 7.2), 150 mM NaCl, 0.5 mM EDTA, 5 mM DTT, 0.05% BSA (w/v), 0.05% CHAPS) in the presence or absence of inhibitor (5 μl). Inhibitors were stored as 10 mM DMSO stocks in an inert environment (low humidity, dark, low oxygen, room temperature) using a Storage Pod System and serial dilutions were prepared in buffer just prior to the assay (from 200 to 0.1 μM, 8 dp curve). […] FP was measured every 15 min over a period of 1.5 h (within the linear range of the assay) using a Synergy 4 plate reader (BioTek) exciting at 530 nm and measuring the amount of parallel and perpendicular light at 575 nm. The FP signal was subsequently normalised to the control without compound present.
A general note: Polarisation of emitted light reports the rotation of a fluorescent probe.

Setting [1] is: Table 4, biochemical assay, read-out: USP7 IC50.

Read-outs that look alike come from different tables or passages of the source. Where only a bound is given, the exact number is not on record here.

USP7, sequence (Q93009 whole entry): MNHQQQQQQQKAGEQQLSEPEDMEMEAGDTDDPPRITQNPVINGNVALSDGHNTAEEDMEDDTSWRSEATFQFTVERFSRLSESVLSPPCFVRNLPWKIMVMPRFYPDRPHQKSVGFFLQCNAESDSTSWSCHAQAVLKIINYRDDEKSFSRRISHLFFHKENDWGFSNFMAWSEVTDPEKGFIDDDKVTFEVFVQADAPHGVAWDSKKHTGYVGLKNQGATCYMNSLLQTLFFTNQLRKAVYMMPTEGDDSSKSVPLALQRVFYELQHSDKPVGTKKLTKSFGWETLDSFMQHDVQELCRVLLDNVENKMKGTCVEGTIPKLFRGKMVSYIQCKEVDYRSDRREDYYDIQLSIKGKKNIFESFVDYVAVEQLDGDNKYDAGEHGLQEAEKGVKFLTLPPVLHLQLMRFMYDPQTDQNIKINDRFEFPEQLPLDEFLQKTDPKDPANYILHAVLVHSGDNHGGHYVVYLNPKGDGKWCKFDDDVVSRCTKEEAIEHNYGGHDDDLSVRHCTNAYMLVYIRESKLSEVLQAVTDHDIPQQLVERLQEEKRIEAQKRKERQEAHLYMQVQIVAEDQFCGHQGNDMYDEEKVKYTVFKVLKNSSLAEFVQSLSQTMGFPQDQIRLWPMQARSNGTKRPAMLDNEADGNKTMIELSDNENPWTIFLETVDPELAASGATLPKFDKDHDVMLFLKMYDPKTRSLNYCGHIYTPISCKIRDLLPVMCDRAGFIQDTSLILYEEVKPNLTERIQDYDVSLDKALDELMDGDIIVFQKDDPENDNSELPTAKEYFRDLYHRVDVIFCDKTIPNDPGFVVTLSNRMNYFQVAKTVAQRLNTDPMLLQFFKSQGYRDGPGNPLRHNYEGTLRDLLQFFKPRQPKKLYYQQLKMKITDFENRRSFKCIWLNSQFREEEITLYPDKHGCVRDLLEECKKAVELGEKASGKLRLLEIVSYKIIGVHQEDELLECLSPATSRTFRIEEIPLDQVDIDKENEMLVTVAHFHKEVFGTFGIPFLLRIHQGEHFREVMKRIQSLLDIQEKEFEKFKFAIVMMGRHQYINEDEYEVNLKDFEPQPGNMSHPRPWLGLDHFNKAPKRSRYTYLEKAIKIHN

Consider `CCn1nc2c(=O)n(CC3(O)CCN(C(=O)C[C@H](c4ccccc4)C(F)(F)F)CC3)cnc2c1-c1ccc(CN)cc1` [Example 120], for which, under setting [1], the IC50 (in general, the concentration that gives 50% inhibition) is below 0.25 µM. The same measure, in the same setting: as for `Cn1nc2c(=O)n(CC3(O)CCN(C(=O)C4(C)CC4)CC3)cnc2c1-c1ccc(C(=O)O)cc1` [Example 245, 4-(6-((4-Hydroxy-1-(1-methylcyclopropane-1-carbonyl)piperidin-4-yl)methyl)-2-methyl-7-oxo-6,7-dihydro-2H-pyrazolo[4,3-d]pyrimidin-3-yl)benzoic Acid], the figure is 1 to 200 µM; as for `Cn1nc2c(=O)n(CC3(O)CCN(C(=O)C[C@H](c4ccccc4)C(F)(F)F)CC3)cnc2c1-c1ccc(C2(N)CCC2)cc1` [Example 88, (R)-3-(4-(1-Aminocyclobutyl)phenyl)-6-((4-hydroxy-1-(4,4,4-trifluoro-3-phenylbutanoyl)piperidin-4-yl)methyl)-2-methyl-2H-pyrazolo[4,3-d]pyrimidin-7(6H)-one], below 0.25 µM; as for `Cn1nc2c(=O)n(CC3(O)CCN(C(=O)C[C@H](c4ccccc4)C(F)(F)F)CC3)cnc2c1C1=CCCCC1` [Example 134, (R)-3-(Cyclohex-1-en-1-yl)-6-((4-hydroxy-1-(4,4,4-trifluoro-3-phenylbutanoyl)piperidin-4-yl)methyl)-2-methyl-2H-pyrazolo[4,3-d]pyrimidin-7(6H)-one], below 0.25 µM.

As to `Cc1nc2c(=O)n(CC3(O)CCN(C(=O)C[C@@H](C)c4ccccc4)CC3)cnc2n1-c1ccc(CN)cc1` [Example 72, (R)-9-(4-(Aminomethyl)phenyl)-1-((4-hydroxy-1-(3-phenylbutanoyl)piperidin-4-yl)methyl)-8-methyl-1H-purin-6(9H)-one], the IC50 under setting [1] is below 0.25 µM. On the same count and under the same terms, as for `C[C@H](CC(=O)N1CCC(O)(Cn2cnc(N3CC[C@H](N)C3)cc2=O)CC1)c1ccccc1` [Example 12, 6-((S)-3-Aminopyrrolidin-1-yl)-3-((4-hydroxy-1-((R)-3-phenylbutanoyl)piperidin-4-yl)methyl)pyrimidin-4(3H)-one], the figure is below 0.25 µM; as for `CS(=O)(=O)c1nc2ncn(CC3(O)CCN(C(=O)CCc4ccccc4)CC3)c(=O)c2s1` [Example 92, 6-((4-Hydroxy-1-(3-phenylpropanol)piperidin-4-yl)methyl)-2-(methylsulfonyl)thiazolo[4,5-d]pyrimidin-7(6H)-one], 1 to 200 µM. The same measure, in the same setting: as for `CNc1nc2ncn(CC3(O)CCN(C(=O)CCc4ccccc4)CC3)c(=O)c2s1` [Example 93, 6-((4-Hydroxy-1-(3-phenylpropanoyl)piperidin-4-yl)methyl)-2-(methylamino)thiazolo[4,5-d]pyrimidin-7(6H)-one], the figure is 1 to 200 µM. With `Cc1nc2c(=O)n(CC3(O)CCN(C(=O)c4cnc(C5CC5)o4)CC3)cnc2n1-c1ccccc1` [Example 195, 1-((1-(2-Cyclopropyloxazole-5-carbonyl)-4-hydroxypiperidin-4-yl)methyl)-8-methyl-9-phenyl-1H-purin-6(9H)-one], the IC50 under setting [1] lay in the range of 1 to 200 µM.

Take `C[C@H](CC(=O)N1CCC(O)(Cn2cnc(NC[C@@H]3CCCN3C)cc2=O)CC1)c1ccccc1` [Example 66, 3-((4-Hydroxy-1-((R)-3-phenylbutanoyl)piperidin-4-yl)methyl)-6-((((S)-1-methylpyrrolidin-2-yl)methyl)amino)pyrimidin-4(3H)-one, Formic Acid]: under setting [1], the IC50 lay within 1 to 200 µM. With `CC1(C(=O)N2CCC(O)(Cn3cnc4c(cc(Cl)n4-c4cccc(N5CCOCC5)c4)c3=O)CC2)CC1` [Example 226, 6-Chloro-3-((4-hydroxy-1-(1-methylcyclopropanecarbonyl)piperidin-4-yl)methyl)-7-(3-morpholinophenyl)-3H-pyrrolo[2,3-d]pyrimidin-4(7H)-one], the IC50 under setting [1] was below 0.25 µM. Still for that read-out and setting: as for `C[C@H](CC(=O)N1CCC(O)(Cn2cnc(N3CC4CCOC4C3)cc2=O)CC1)c1ccccc1` (stereo partly drawn) [Example 153, 3-((4-hydroxy-1-((R)-3-phenylbutanoyl)piperidin-4-yl)methyl)-6-(tetrahydro-2H-furo[2,3-c]pyrrol-5(3H)-yl)pyrimidin-4(3H)-one], the figure is 1 to 200 µM; as for `C[C@H](CC(=O)N1CCC(O)(Cn2cnc(N[C@@H]3CCNC3)cc2=O)CC1)c1ccccc1` [Example 110, 3-((4-Hydroxy-1-((R)-3-phenylbutanoyl)piperidin-4-yl)methyl)-6-(((R)-pyrrolidin-3-yl)amino)pyrimidin-4(3H)-one], 0.25 to 0.999 µM; as for `C[C@H](CC(=O)N1CCC(O)(Cn2cnc(/C=C/CN3CCCC3)cc2=O)CC1)c1ccccc1` [Example 51, (R,E)-3-((4-Hydroxy-1-(3-phenylbutanoyl)piperidin-4-yl)methyl)-6-(3-(pyrrolidin-1-yl)prop-1-en-1-yl)pyrimidin-4(3H)-one], 1 to 200 µM. For the compound `C[C@H](CC(=O)N1CCC(O)(Cn2cnc(NCCN3CC[C@H](F)C3)cc2=O)CC1)c1ccccc1` [Example 74, 6-((2-((S)-3-Fluoropyrrolidin-1-yl)ethyl)amino)-3-((4-hydroxy-1-((R)-3-phenylbutanoyl)piperidin-4-yl)methyl)pyrimidin-4(3H)-one, Formic Acid], the IC50 (USP7 IC50, Table 4, biochemical assay) was 0.25 to 0.999 µM. In the case of `O=C(C[C@H](c1ccccc1)C(F)(F)F)N1CCC(O)(Cn2cnc3c(ncn3-c3ccccc3)c2=O)CC1` [Example 128, (R)-1-((4-Hydroxy-1-(4,4,4-trifluoro-3-phenylbutanoyl)piperidin-4-yl)methyl)-9-phenyl-1H-purin-6(9H)-one], the IC50 under setting [1] was 0.25 to 0.999 µM. As for `[2H]C1([2H])Oc2ccc(-n3c(Cl)cc4c(=O)n(CC5(O)CCN(C(=O)C6(C)CC6)CC5)cnc43)cc2O1` [Example 235, 7-(Benzo[d][1,3]dioxol-5-yl-2,2-d2)-6-chloro-3-((4-hydroxy-1-(1-methylcyclopropane-1-carbonyl)piperidin-4-yl)methyl)-3,7-dihydro-4H-pyrrolo[2,3-d]pyrimidin-4-one], the IC50 under setting [1] is below 0.25 µM. As for `Cn1nc2c(=O)n(CC3(O)CCN(C(=O)CC(C4CC4)C4CC4)CC3)cnc2c1-c1ccccc1` [Example 193, 6-((1-(3,3-Dicyclopropylpropanoyl)-4-hydroxypiperidin-4-yl)methyl)-2-methyl-3-phenyl-2H-pyrazolo[4,3-d]pyrimidin-7(6H)-one], the half-maximal inhibitory concentration (IC50) under setting [1] was 0.25 to 0.999 µM. On the same count and under the same terms, as for `C[C@H](CC(=O)N1CCC(O)(Cn2cnc(N3CCC4(CC3)COC4)cc2=O)CC1)c1ccccc1` [Example 175, (R)-3-((4-hydroxy-1-(3-phenylbutanoyl)piperidin-4-yl)methyl)-6-(2-oxa-7-azaspiro[3.5]nonan-7-yl)pyrimidin-4(3H)-one], the figure is 1 to 200 µM; as for `CC(=O)N1CCC(O)(Cn2cnc(NCCN3CCCC3)cc2=O)CC1` [Example 132, 3-((1-Acetyl-4-hydroxypiperidin-4-yl)methyl)-6-((2-(pyrrolidin-1-yl)ethyl)amino)pyrimidin-4(3H)-one], 1 to 200 µM.

For the compound `Cn1cc(-c2cc(-n3c(Cl)cc4c(=O)n(CC5(O)CCN(C(=O)c6cnc(C7CC7)o6)CC5)cnc43)ccc2F)cn1` [Example 232, 6-Chloro-3-((1-(2-cyclopropyloxazole-5-carbonyl)-4-hydroxypiperidin-4-yl)methyl)-7-(4-fluoro-3-(1-methyl-1H-pyrazol-4-yl)phenyl)-3H-pyrrolo[2,3-d]pyrimidin-4(7H)-one], under setting [1], the half-maximal inhibitory concentration (IC50) is below 0.25 µM. The same measure, in the same setting: as for `Cn1nc2c(=O)n(CC3(O)CCN(C(=O)C[C@H](c4cc(F)cc(F)c4)C(F)(F)F)CC3)cnc2c1-c1ccc(CN)cc1` [Example 84, (R)-3-(4-(Aminomethyl)phenyl)-6-((1-(3-(3,5-difluorophenyl)-4,4,4-trifluorobutanoyl)-4-hydroxypiperidin-4-yl)methyl)-2-methyl-2H-pyrazolo[4,3-d]pyrimidin-7(6H)-one], the figure is 1 to 200 µM; as for `C[C@H](CC(=O)N1CCC(O)(Cn2cnc(N(CCN3CCCC3)c3ccccc3)cc2=O)CC1)c1ccccc1` [Example 121, (R)-3-((4-Hydroxy-1-(3-phenylbutanoyl)piperidin-4-yl)methyl)-6-(phenyl(2-(pyrrolidin-1-yl)ethyl)amino)pyrimidin-4(3H)-one, Formic Acid], 1 to 200 µM.

Take `O=C(c1cnc(C2CC2)o1)N1CCC(O)(Cn2cnc3c(cc(Cl)n3-c3cccc(Br)c3)c2=O)CC1` [Example 213, 7-(3-Bromophenyl)-6-chloro-3-((1-(2-cyclopropyloxazole-5-carbonyl)-4-hydroxypiperidin-4-yl)methyl)-3H-pyrrolo[2,3-d]pyrimidin-4(7H)-one]: under setting [1], the IC50 is below 0.25 µM. On the same count and under the same terms, as for `C[C@H](CC(=O)N1CCC(O)(Cn2cnc(NCCN3CCCC3)c(Br)c2=O)CC1)c1ccccc1` [Example 45, (R)-5-Bromo-3-((4-hydroxy-1-(3-phenylbutanoyl)piperidin-4-yl)methyl)-6-((2-(pyrrolidin-1-yl)ethyl)amino)pyrimidin-4(3H)-one], the figure is 1 to 200 µM; as for `C[C@H](CC(=O)N1CCC(O)(Cn2cnc3c(C#CCO)n(C)nc3c2=O)CC1)c1ccccc1` [Example 31, (R)-6-((4-Hydroxy-1-(3-phenylbutanoyl)piperidin-4-yl)methyl)-3-(3-hydroxyprop-1-yn-1-yl)-2-methyl-2H-pyrazolo[4,3-d]pyrimidin-7(6H)-one], below 0.25 µM; as for `Cn1nc2c(=O)n(CC3(O)CCN(C(=O)C4(C)CC4)CC3)cnc2c1-c1ccccc1` [Example 191, 6-((4-Hydroxy-1-(1-methylcyclopropanecarbonyl)piperidin-4-yl)methyl)-2-methyl-3-phenyl-2H-pyrazolo[4,3-d]pyrimidin-7(6H)-one], 1 to 200 µM.

Values taken from US10766903B2 (ALMAC DISCOVERY LIMITED, priority 2016, dated 2020).
